Test results: ChEMBL document CHEMBL1201862, “PubChem BioAssay data set” (2004)
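96-well plates; 48 h exposure; 5 concentrations. Endpoints by linear interpolation between flanking doses. Not reached: highest tested concentration assigned. The concentration for 50% growth inhibition is given as GI50.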 Calls of active or inactive are those of the source. No stated cut-off is given here; in the data, active = GI50 up to about 1.1 µM and inactive = higher.

How the values were obtained:
Assay in all cases: NCI-60 cell line screen, 48 h
Hs-578T = tested on: Hs-578T
HCT-15 = tested on: HCT-15
RPMI-8226 = tested on: RPMI-8226
A549 = tested on: A549
SK-MEL-5 = tested on: SK-MEL-5
NCI-H460 = tested on: NCI-H460
HL-60 = tested on: HL-60
SK-MEL-28 = tested on: SK-MEL-28
NCI/ADR-RES = tested on: NCI/ADR-RES
LOX IMVI = tested on: LOX IMVI
COLO 205 = tested on: COLO 205
SK-OV-3 = tested on: SK-OV-3
SK-MEL-2 = tested on: SK-MEL-2
UO-31 = tested on: UO-31
786-0 = tested on: 786-0
CAKI-1 = tested on: CAKI-1
SF-295 = tested on: SF-295
Malme-3M = tested on: Malme-3M
NCI-H226 = tested on: NCI-H226

Structure (SMILES) | GI50 (Hs-578T) | GI50 (HCT-15) | GI50 (RPMI-8226) | GI50 (A549) | GI50 (SK-MEL-5) | GI50 (NCI-H460) | GI50 (HL-60) | GI50 (SK-MEL-28) | GI50 (NCI/ADR-RES) | GI50 (LOX IMVI) | GI50 (COLO 205) | GI50 (SK-OV-3) | GI50 (SK-MEL-2) | GI50 (UO-31) | GI50 (786-0) | GI50 (CAKI-1) | GI50 (SF-295) | GI50 (Malme-3M) | GI50 (NCI-H226)
O=C(c1ccsc1)c1nccc2c1cnc1ccccc12 | 17 µM (inactive) | > 100 µM | > 100 µM (inactive) | > 100 µM (inactive) | 36.2 µM (inactive) | 89.9 µM (inactive) | 2.47 µM (inactive) | > 100 µM (inactive) | > 100 µM (inactive) | > 100 µM (inactive) | > 100 µM (inactive) | 54.8 µM (inactive) | > 100 µM (inactive) | 6.55 µM (inactive) | 97.7 µM (inactive) | > 100 µM (inactive) | 45.5 µM (inactive) | 65.5 µM (inactive) | 34.8 µM (inactive)
COC(=O)Nc1nc2cc(C(=O)c3ccc[nH]3)ccc2[nH]1 | 1.54 µM (inactive) | 0.319 µM | 0.49 µM (active) |  | 0.282 µM (active) | 0.596 µM (active) | 0.0689 µM (active) | 0.711 µM (active) | 0.465 µM (active) | 0.462 µM (active) | 0.342 µM (active) | 2.03 µM (inactive) | 0.353 µM (active) | 1.21 µM (inactive) | 1.69 µM (inactive) | 0.332 µM (active) | 0.759 µM (active) | 0.418 µM (active) | 1.16 µM (inactive)
SC1=NC2=C(CSC/C2=C\c2cccc(Br)c2)C(c2cccc(Br)c2)N1 (configuration not stated) | > 100 µM (inactive) | > 100 µM | 64.7 µM (inactive) | > 100 µM (inactive) | 30.3 µM (inactive) | 55.6 µM (inactive) | > 100 µM (inactive) | > 100 µM (inactive) | 61.9 µM (inactive) | > 100 µM (inactive) | 36.2 µM (inactive) | > 100 µM (inactive) | > 100 µM (inactive) |  | 66.8 µM (inactive) | > 100 µM (inactive) | > 100 µM (inactive) | > 100 µM (inactive) | > 100 µM (inactive)
NC(CC(=O)O)(Cc1ccccc1)C(=O)O (configuration not stated) | > 100 µM (inactive) | > 100 µM | > 100 µM (inactive) | > 100 µM (inactive) | > 100 µM (inactive) | > 100 µM (inactive) | > 100 µM (inactive) | > 100 µM (inactive) | > 100 µM (inactive) | > 100 µM (inactive) | > 100 µM (inactive) | > 100 µM (inactive) | > 100 µM (inactive) | > 100 µM (inactive) | > 100 µM (inactive) | > 100 µM (inactive) | > 100 µM (inactive) | > 100 µM (inactive) | > 100 µM (inactive)
Cn1c2c(c3ccccc31)CCN1C(=O)C3SC21C1C(=O)N(c2ccccc2)C(=O)C31 (configuration not stated) | > 100 µM (inactive) | > 100 µM | 38.1 µM (inactive) | > 100 µM (inactive) | 20.4 µM (inactive) |  | 25 µM (inactive) | 25.4 µM (inactive) | > 100 µM (inactive) | > 100 µM (inactive) | 41.8 µM (inactive) | > 100 µM (inactive) | 0.0256 µM (active) | > 100 µM (inactive) | > 100 µM (inactive) | > 100 µM (inactive) | > 100 µM (inactive) | > 100 µM (inactive) | 40.3 µM (inactive)
COc1cc(C2c3cc4c(cc3OC(N3CCOCC3)C2C)OCO4)cc(OC)c1O (configuration not stated) | 3.18 µM (inactive) | 2.87 µM | 8.2 µM (inactive) | 8.91 µM (inactive) | 3.18 µM (inactive) | 5.09 µM (inactive) | 3.52 µM (inactive) | 12.9 µM (inactive) | 3.35 µM (inactive) | 6.7 µM (inactive) | 15.6 µM (inactive) | 5.69 µM (inactive) | 6.9 µM (inactive) | 14.8 µM (inactive) | 10.1 µM (inactive) | 11.5 µM (inactive) | 3.59 µM (inactive) | 3.29 µM (inactive) | 22.6 µM (inactive)
Cc1ccc(C)c(NC(=O)/C(=N\N)C(c2cnc3ccc([N+](=O)[O-])cc3n2)[N+](=O)[O-])c1 (configuration not stated) | 80.4 µM (inactive) | > 100 µM | 45.9 µM (inactive) | 92.7 µM (inactive) | 41.6 µM (inactive) | 70.3 µM (inactive) | 52 µM (inactive) | > 100 µM (inactive) | 32.2 µM (inactive) | 56.4 µM (inactive) |  | 67.5 µM (inactive) | 71.6 µM (inactive) | 23.6 µM (inactive) | > 100 µM (inactive) | 39.4 µM (inactive) | > 100 µM (inactive) | 66.8 µM (inactive) | > 100 µM (inactive)
O=C(O)COc1cc(-c2ccccc2)nc2ccc(F)cc12 | > 100 µM (inactive) | > 100 µM | > 100 µM (inactive) | > 100 µM (inactive) | > 100 µM (inactive) | > 100 µM (inactive) | > 100 µM (inactive) | > 100 µM (inactive) | > 100 µM (inactive) | > 100 µM (inactive) | > 100 µM (inactive) | > 100 µM (inactive) | > 100 µM (inactive) | 70 µM (inactive) | > 100 µM (inactive) | > 100 µM (inactive) | > 100 µM (inactive) | > 100 µM (inactive) | > 100 µM (inactive)
N#Cc1c(C#N)c(-c2cccc([N+](=O)[O-])c2)n(-c2ccccc2)c1N | 55.1 µM (inactive) | > 100 µM | > 100 µM (inactive) | 33.8 µM (inactive) | > 100 µM (inactive) |  | > 100 µM (inactive) |  | > 100 µM (inactive) | > 100 µM (inactive) | > 100 µM (inactive) | 96.2 µM (inactive) | > 100 µM (inactive) | > 100 µM (inactive) | 51.5 µM (inactive) | 44.4 µM (inactive) | 63.2 µM (inactive) | > 100 µM (inactive) | 18 µM (inactive)
COc1ccc2c(c1)C1=NCCN(CCN(C)C)c3ccc([N+](=O)[O-])c(c31)N2 | 1.75 µM (inactive) | 0.395 µM | 0.442 µM (active) | 0.417 µM (active) | 0.845 µM (active) | 0.354 µM (active) | 0.427 µM (active) | 1.28 µM (inactive) | 0.957 µM (active) | 0.351 µM (active) |  | 0.259 µM (active) | 1.45 µM (inactive) | 0.735 µM (active) | 0.255 µM (active) | 0.56 µM (active) | 0.35 µM (active) | 0.431 µM (active) | 2.17 µM (inactive)
CC(=O)NNc1nc(C)c(C(/C=C/c2cccc([N+](=O)[O-])c2)=N/NC(=S)NN)s1 | > 100 µM (inactive) | > 100 µM | > 100 µM (inactive) | > 100 µM (inactive) | > 100 µM (inactive) | > 100 µM (inactive) | > 100 µM (inactive) | > 100 µM (inactive) | > 100 µM (inactive) | > 100 µM (inactive) | > 100 µM (inactive) | > 100 µM (inactive) | > 100 µM (inactive) | > 100 µM (inactive) | > 100 µM (inactive) | > 100 µM (inactive) | > 100 µM (inactive) | > 100 µM (inactive) | > 100 µM (inactive)
CC(C)(C)c1cc(C(=O)/C=C/c2ccc3c(c2)CCO3)cc(C(C)(C)C)c1O | 1.32 µM (inactive) | 1.04 µM | 0.984 µM (active) | 1.63 µM (inactive) | 0.908 µM (active) | 0.76 µM (active) | 0.951 µM (active) | > 83 µM (inactive) | 0.614 µM (active) | 1.57 µM (inactive) | 0.701 µM (active) | 1.64 µM (inactive) | 1.29 µM (inactive) | 1.2 µM (inactive) | 1.12 µM (active) | 0.724 µM (active) | 1.69 µM (inactive) | > 100 µM (inactive) | 2.24 µM (inactive)
O=C1CCCNn2c(nc3ncccc3c2=O)N1 | > 100 µM (inactive) | > 100 µM | > 100 µM (inactive) | > 100 µM (inactive) | > 100 µM (inactive) | > 100 µM (inactive) | > 100 µM (inactive) |  | > 100 µM (inactive) | > 100 µM (inactive) | > 100 µM (inactive) | > 100 µM (inactive) | > 100 µM (inactive) | > 100 µM (inactive) | > 100 µM (inactive) | > 100 µM (inactive) | > 100 µM (inactive) | > 100 µM (inactive) | > 100 µM (inactive)
O=C(O)CP(=O)(O)O | > 100 µM (inactive) | > 100 µM | > 100 µM (inactive) | > 100 µM (inactive) | > 100 µM (inactive) | > 100 µM (inactive) | > 100 µM (inactive) | > 100 µM (inactive) | > 100 µM (inactive) | > 100 µM (inactive) | > 100 µM (inactive) | > 100 µM (inactive) | > 100 µM (inactive) | > 100 µM (inactive) | > 100 µM (inactive) | > 100 µM (inactive) | > 100 µM (inactive) | > 100 µM (inactive) | > 100 µM (inactive)
Cc1ccc2c(O)cc(-c3cccc(Cl)c3)nc2n1 | 0.028 µM (active) | < 0.0192 µM | < 0.0212 µM (active) | 0.0325 µM (active) | < 0.0177 µM (active) | < 0.0204 µM (active) | < 0.0169 µM (active) | 0.0916 µM (active) | 0.0411 µM (active) | 0.024 µM (active) | 0.0308 µM (active) | 0.0411 µM (active) | 0.0324 µM (active) | 0.902 µM (active) | < 0.0255 µM (active) | 0.0415 µM (active) | < 0.0151 µM (active) | 0.0661 µM (active) | 0.0489 µM (active)
